# Source: US5155107A, “17β-substituted-4-aza-5α-androstan-3-one derivatives and process for their preparation” (Farmitalia Carlo Erba, priority 1990, dated 1992)
# pIC50: −log10 of the molar value. Read-outs that look alike come from different tables or passages of the source.
# Key:
# [1] = biological target: T1, 5α-reductase (particulate fraction of human benign prostatic hypertrophy tissue) (Homo sapiens, UniProt P31213); assay: Inhibition of prostatic 5α-reductase in vitro; format: biochemical
# T1 construct: homogenates of human benign prostatic hypertrophy tissue as the enzyme source; from tissue; host or cells: human benign prostatic hypertrophy tissue, 40,000×g particulate fraction (nuclei, microsomes, mitochondria)
# T1 sequence (P31213 1-254): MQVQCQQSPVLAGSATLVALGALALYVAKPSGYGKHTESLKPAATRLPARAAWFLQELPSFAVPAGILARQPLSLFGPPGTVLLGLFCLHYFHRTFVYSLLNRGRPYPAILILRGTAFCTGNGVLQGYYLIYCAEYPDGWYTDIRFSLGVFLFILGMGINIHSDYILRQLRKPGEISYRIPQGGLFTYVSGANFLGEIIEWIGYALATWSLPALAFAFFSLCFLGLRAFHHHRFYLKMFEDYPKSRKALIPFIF
# Experimental: For example, the inhibitory effect of the compounds of the invention on 5α-reductase was determined in vitro in comparison with progesterone taken as the reference compound, according to the procedure reported herebelow.
# Inhibition of 5α-reductase was evaluated using the particulate fraction (containing nuclei, microsomes and mitochondria) from homogenates of human benign prostatic hypertrophy tissue as the enzyme source. The particulate fraction was prepared centrifuging prostate homogenate at 40,000×g. The resulting pellet, washed several times, was resuspended in buffer and stored at -80° C. in aliquots containing ≈10 mg protein/ml.
# The assay for 5α-reductase was done in a final volume of 0.5 ml, containing 1 mM dithiothreitol, 40 mM TRIS-HCl buffer pH 5.0, 5 mM NADPH, 1 μM [4-^14 C]testosterone, 0.3 mg of prostate particulate fraction and various concentrations of the inhibitors. After 30 min incubation at 37° C. the reaction was terminated by addition of 1.5 ml diethyl ether and the organic phase was separated, evaporated under N2 and resuspended in ethyl acetate. Testosterone metabolites in this extract were separated in TLC on silica gel F 254 plates (Merck) using chloroform, acetone and n-hexane (2:1:2) as developing solvent system. Radioactivity on the plate was scanned and analyzed from quantitative plots printed by a TLC-analyzer (Berthold). The fractional 5α-reduction of testosterone was calculated by relating the ^14 C-radioactivity in the 5α-reduced metabolites (5α-dihydrotestosterone, 3α- and 3β-androstanediols) regions to the total radioactivity in the testosterone and 5α-reduced metabolites regions.
# The concentration of each compound required to reduce control 5α-reductase by 50% (IC50) was determined by plotting % inhibition versus log of inhibitor concentration.
# As an example, the potency of three representative compounds of the invention, namely 4-methyl-17β-[N-isopropyl-N-(N-isopropylcarbamoyl)carbamoyl]-4-aza-5α-androstan-3-one (Compound 1), 4-methyl-17β-[N-cyclohexyl-N-(N-cyclohexylcarbamoyl) carbamoyl-4-aza-5α-androstan-3-one (Compound 11) and 4-methyl-17β-[N-isopropyl-N-(N-isopropylthiocarbamoyl)carbamoyl-4-aza-5α-androstan-3-one (Compound 39) are reported in Table 1 in comparison with progesterone.
# [2] = biological target: T2, cytoplasmic androgen (rat prostate) receptors (Rattus norvegicus, UniProt P15207); assay: Rat prostate androgen receptor binding (inhibition of 3H-DHT binding); design: species or system Sprague-Dawley rats
# T2 construct: Prostatic tissue, obtained from adrenalectomized and castrated Sprague-Dawley rats; from tissue; host or cells: prostate cytosol of adrenalectomized and castrated Sprague-Dawley rats
# T2 sequence (P15207 1-902): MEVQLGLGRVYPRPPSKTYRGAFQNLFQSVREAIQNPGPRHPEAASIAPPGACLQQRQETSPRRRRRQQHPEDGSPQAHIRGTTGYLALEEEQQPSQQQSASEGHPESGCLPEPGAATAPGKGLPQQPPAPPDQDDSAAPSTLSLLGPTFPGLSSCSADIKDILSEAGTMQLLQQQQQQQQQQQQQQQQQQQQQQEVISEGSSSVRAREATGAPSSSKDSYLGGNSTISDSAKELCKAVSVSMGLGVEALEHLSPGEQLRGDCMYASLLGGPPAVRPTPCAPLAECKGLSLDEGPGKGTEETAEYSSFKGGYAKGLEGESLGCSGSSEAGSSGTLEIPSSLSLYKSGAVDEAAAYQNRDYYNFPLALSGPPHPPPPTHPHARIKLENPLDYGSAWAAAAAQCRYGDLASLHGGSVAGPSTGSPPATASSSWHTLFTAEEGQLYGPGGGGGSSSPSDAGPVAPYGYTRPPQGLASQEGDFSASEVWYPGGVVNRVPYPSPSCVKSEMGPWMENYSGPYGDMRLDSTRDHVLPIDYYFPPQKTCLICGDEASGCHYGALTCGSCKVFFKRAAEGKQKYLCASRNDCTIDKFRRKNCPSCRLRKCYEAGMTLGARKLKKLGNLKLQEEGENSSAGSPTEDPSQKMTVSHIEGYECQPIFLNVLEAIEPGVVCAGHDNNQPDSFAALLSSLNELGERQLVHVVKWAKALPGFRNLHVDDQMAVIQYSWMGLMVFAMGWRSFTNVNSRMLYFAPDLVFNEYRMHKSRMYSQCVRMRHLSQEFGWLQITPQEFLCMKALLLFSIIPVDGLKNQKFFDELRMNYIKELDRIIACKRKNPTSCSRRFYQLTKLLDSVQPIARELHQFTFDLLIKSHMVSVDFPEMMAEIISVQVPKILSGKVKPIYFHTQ
# Experimental: For their use in androgen- dependent conditions, the 5α-reductase inhibitors, should have a very low intrinsic androgenic activity, which can be shown by the binding affinity to the androgen receptor.
# A low binding affinity to the androgen receptor is therefore desirable in a 5α-reductase inhibitor for use in the treatment of androgen dependent conditions.
# Binding affinity to cytoplasmic androgen (rat prostate) receptors was determined by standard dextran-coated absorption technique (Raynaud J. P. et al., J. Steroid. Biochem. 6: 615-622, 1975).
# Prostatic tissue, obtained from adrenalectomized and castrated Sprague-Dawley rats, was homogenized in 10 mM Tris HCl pH 7.4, containing 1.5 mM EDTA and 1 mM dithiothreitol in motor driven tissue grinders. The homogenate was centrifuged at 10,000×g for 1 h at 4° C.
# Aliquots of cytosol 00.2 ml) were incubated for 2 hours at 0° C. with various concentrations of the test compounds, in duplicate, and a fixed amount of ^3 H-dihydrotesterone (DHT) final concentration 1 nM in 0.4 ml of incubation volume).
# Then, free radioactivity was absorbed on 0.2 ml of dextran-coated charcoal suspension and after centrifugation at 1,500×g for 10 min., the bound radioactivity in the supernatant was determined by liquid scintillation in Rialuma.
# The concentration of each compound required to reduce specific ^3 H-DHT binding by 50% (IC50) was determined from a plot of bound radioactivity versus log of competitor concentration.
# In the above test the Compound 1 of the present invention was compared with the same above identified reference compound 4-MA and the obtained results are reported in the following Table 3.
# [3] = test system: 5α-reductase of rat prostate; assay: Inhibition of prostate growth stimulated by testosterone propionate in castrated rats; format: in vivo; details: for Inhibition of prostate growth stimulated by testosterone propionate: 7 days, testosterone propionate 0.3 mg/kg/day s.c.
# Experimental: The compounds of the invention were also tested for their in vivo potency in inhibiting 5α-reductase of rat prostate, according to the following procedure.
# Prepuberal 21-day old male rat were castrated via scrotal incision in light ether anaesthesia.
# Starting on the seventh day after orchiectomy, the rats were treated with testosterone propionate (0.3 mg/kg/day subcutaneously) for 7 consecutive days to stimulate prostate growth. The 5α-reductase inhibitors were given orally at various doses once daily for 7 days, together with the standard dose of testosterone propionate.
# Thus, for example, in the above test the compound 1 of the present invention was compared with the well known 5α-reductase inhibitor 4-methyl-17β-N,N-diethyl-carbamoyl-4-methyl-4-aza-5α-androstan- 3-one, identified as 4-MA and described, e.g., in U.S. Pat. No. 4,377,584) giving the results reported in the following Table 2.
# [4] = human BPH particulate fraction, 1 μM [4-14C]testosterone, pH 5.0, 30 min, 37° C., read-out: Inhibition of prostatic 5α-reductase IC50
smiles,measurement,setting,value
"CC(=O)[C@H]1CC[C@H]2[C@@H]3CCC4=CC(=O)CC[C@]4(C)[C@H]3CC[C@]12C [Progesterone, progesterone, reference compound]",pIC50,[1],5.70
"CCN(CC)C(=O)[C@H]1CC[C@H]2[C@@H]3CC[C@H]4N(C)C(=O)CC[C@]4(C)[C@H]3CC[C@]12C [Compound 4-MA, 4-methyl-17β-N,N-diethyl-carbamoyl-4-methyl-4-aza-5α-androstan-3-one]",displaces DHT at a concentration lower than Compound 1 (fold),[2]; 4-MA versus Compound 1,60 times lower
same,pIC50,"[2]; rat prostate cytosol, 1 nM 3H-DHT, 2 hours, 0° C., read-out: Inhibition of DHT binding IC50",5.60
same,Inhibition of prostate growth stimulated by testosterone propionate,[3]; 3 mg/kg/day p.o.,1%
same,Inhibition of prostate growth stimulated by testosterone propionate,[3]; 10 mg/kg/day p.o.,0%
same,Inhibition of prostate growth stimulated by testosterone propionate,[3]; 30 mg/kg/day p.o.,49%
same,in vivo effect on the hypertrophic response to testosterone propionate,"[3]; same dose, 10 mg/kg/day oral",completely ineffective
"CC(C)NC(=O)N(C(=O)[C@H]1CC[C@H]2[C@@H]3CC[C@H]4N(C)C(=O)CC[C@]4(C)[C@H]3CC[C@]12C)C(C)C [Compound 1, 4-methyl-17β-[N-isopropyl-N-(N-isopropylcarbamoyl)carbamoyl]-4-aza-5α-androstan-3-one]",pIC50,[2],3.82
same,selectivity versus androgen receptor binding,[2]; Compound 1 versus reference compound 4-MA,more selective than the reference compound 4-MA
same,displacement of DHT from the prostatic androgen receptor,[2]; Table 3,displaces DHT from the prostatic androgen receptor only at a very high concentration
same,Inhibition of prostate growth stimulated by testosterone propionate,[3]; 3 mg/kg/day p.o.,33%
same,Inhibition of prostate growth stimulated by testosterone propionate,[3]; 10 mg/kg/day p.o.,55%
same,pIC50,[1]; [4],7.26
"CC(C)NC(=S)N(C(=O)[C@H]1CC[C@H]2[C@@H]3CC[C@H]4N(C)C(=O)CC[C@]4(C)[C@H]3CC[C@]12C)C(C)C [Compound 39, 4-methyl-17β-[N-isopropyl-N-(N-isopropylthiocarbamoyl)carbamoyl]-4-aza-5α-androstan-3-one]",pIC50,[1]; [4],7.96
"CN1C(=O)CC[C@]2(C)[C@H]3CC[C@]4(C)[C@@H](C(=O)N(C(=O)NC5CCCCC5)C5CCCCC5)CC[C@H]4[C@@H]3CC[C@@H]12 [Compound 11, 4-methyl-17β-[N-cyclohexyl-N-(N-cyclohexylcarbamoyl)carbamoyl]-4-aza-5α-androstan-3-one]",pIC50,[1]; [4],7.39
